Measurements from PubChem BioAssay AID1417 (Emory University Molecular Libraries Screening Center, 2008).

What follows are compounds tested against Induced myeloid leukemia cell differentiation protein Mcl-1 (Homo sapiens) (UniProt Q07820) (assay: Mcl-1 Noxa peptide disruption concentration-response – biochemical, TR-FRET, dose response (AID 1417)). Details: Mcl-1/Noxa peptide interaction, cell-free TR-FRET (terbium/rhodamine), 2 h; measured here: absolute IC50.
Induced myeloid leukemia cell differentiation protein Mcl-1 (Homo sapiens), sequence (Q07820 whole entry, looked up): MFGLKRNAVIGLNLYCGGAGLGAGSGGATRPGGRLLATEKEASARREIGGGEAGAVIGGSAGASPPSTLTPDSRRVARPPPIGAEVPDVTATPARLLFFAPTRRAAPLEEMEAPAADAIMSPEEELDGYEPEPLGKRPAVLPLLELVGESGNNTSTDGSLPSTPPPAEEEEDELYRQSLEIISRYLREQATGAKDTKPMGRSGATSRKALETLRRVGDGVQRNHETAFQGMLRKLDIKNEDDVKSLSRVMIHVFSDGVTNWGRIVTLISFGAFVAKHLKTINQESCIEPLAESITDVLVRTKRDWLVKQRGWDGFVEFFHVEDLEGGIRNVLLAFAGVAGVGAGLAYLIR

Compound	IC50
O=C(O)c1ccc(-n2cccc2/C=N\NC(=O)c2cc3cc(Br)ccc3o2)cc1	0.915 µM
C/C(=N/NC(=O)c1cc2ccccc2cc1O)C1C(=O)c2ccccc2C1=O	0.919 µM
CCOC(=O)c1c(NC(=O)c2cc(-c3ccc(O)cc3)on2)sc(C(C)=O)c1C	10.9 µM
O=C(CN1C(=O)/C(=C2\SC(=S)N(C3CCS(=O)(=O)C3)C2=O)c2ccccc21)Nc1ccc(F)cc1 (stereo unspecified)	2.07 µM
CC(C)Oc1ccc(C(=O)Nc2ccc(N(C)C)cc2)cc1	> 54 µM
N#Cc1c(NC(=O)CSc2ncnc3sccc23)oc(-c2ccco2)c1-c1ccco1	3.2 µM
CCC(=O)NC1=C(Cl)C(=O)C(NC(=O)CC)=C(Cl)C1=O	< 0.4 µM
N=C1S/C(=C\c2ccco2)C(=O)N1c1ccc2c(c1)OCO2	8.85 µM
Oc1ccc(/C=N/Nc2nc(-c3cccnc3)nc3ccccc23)c(O)c1	> 54 µM
Cc1cc(NC(=O)Cc2cccs2)no1	< 0.4 µM
CC(=O)Nc1sc(N/N=C\c2ccco2)nc1-c1cccs1	10.6 µM
COCCN(CCOC)S(=O)(=O)c1ccc(C(=O)Nc2c(C)n(C)n(-c3ccccc3)c2=O)cc1	> 54 µM
Cc1cc(C(=O)COC(=O)c2cc(O)c3ccccc3c2O)c(C)n1CC1CCCO1 (stereo unspecified)	< 0.4 µM
Oc1[nH]c(=S)sc1/C=C1\C(c2ccccc2)=Nc2ccccc21	8.66 µM
O=C(NC1CC1)c1cc(-c2ccco2)nc2ccccc12	< 0.4 µM
COc1ccc(-c2csc(NC(=S)NC(=O)c3cccs3)n2)cc1OC	3.31 µM
COc1ccc(-c2nn(CCC(=O)O)cc2/C=C2\SC(N)=NC2=O)cc1OC	4.36 µM
Cc1c(Cc2ccccc2)c(=O)oc2c(O)c(O)ccc12	33.9 µM
CNCc1ccccc1OCc1ccccc1F	5.27 µM
O=[N+]([O-])c1ccc(-c2cc(-c3ccc(Cl)cc3)n[nH]2)cc1	5.61 µM
Oc1ccc(/C=N/Nc2ccnc3cc(Cl)ccc23)c(O)c1	< 0.4 µM
C=CCc1c(C)nc(SCCC)[nH]c1=O	> 54 µM

Compound	IC50
Cc1cc(N(CCO)CCO)ccc1C(c1ccc(N(CCO)CCO)cc1C)c1ccccc1Cl	1.13 µM
O=C(COc1cccnc1[N+](=O)[O-])c1ccc(Cl)s1	2.84 µM
Cc1ccc(N=Nc2ccc(O)c(/C=N\NC(=O)c3ccc(N)cc3)c2)cc1C	2.24 µM
N=c1oc2cc(O)ccc2cc1C(=O)Nc1nc2ccccc2s1	2.93 µM
O=C(O)c1ccccc1-c1ccc(/C=c2\sc3nc4cc(Br)cnc4n3c2=O)o1	3.09 µM
Nc1ccc2c(c1Cl)C(=O)c1ccc(N)c(Cl)c1C2=O	< 0.4 µM
COc1ccc2[nH]c3c(C)c4ccncc4c(C)c3c2c1	< 0.4 µM
CN(C)c1ccc(NC(=O)Nc2ccc3snnc3c2)cc1	< 0.4 µM
COc1cc(C2Nc3cccc4cccc(c34)N2)cc(OC)c1OC(C)=O	2.43 µM
O=c1c2ccccc2sn1-c1cc(S(=O)(=O)N2CCOCC2)ccc1N1CCOCC1	< 0.4 µM
CN1c2ccccc2N(C)C1(C)c1ccccc1	1.12 µM
CN1CCN(c2ccc([N+](=O)[O-])cc2/C=N/NC(=O)c2ccc(F)cc2)CC1	4.75 µM
Cc1ccc(C(C)C)c(OCc2ccc(C(=O)N/N=C/c3ccc(O)cc3O)cc2)c1	13.3 µM
O=c1cc(-c2ccc([N+](=O)[O-])cc2)nc2cc(-c3ccc(Cl)cc3)[nH]n12	1.63 µM
CN(C)c1ccc(Nc2nc(N)c([N+](=O)[O-])c(N3CCOCC3)n2)cc1	< 0.4 µM
COc1ccc(CCNC(=O)CN(c2ccc(OC)c(OC)c2)S(C)(=O)=O)cc1	> 54 µM
CCn1c(C)cc(/C=C2\NC(=O)N(Cc3ccc(Cl)cc3)C2=O)c1C	7.52 µM
COc1ccc(NC(=O)c2ccccc2N(Cc2ccccc2)S(C)(=O)=O)cc1	> 54 µM
Cc1ccc(C(=O)NNc2c3ccccc3nc3ccccc23)cc1	9.97 µM
COc1cc(/C=N/NC(=O)C2c3ccccc3Oc3ccccc32)ccc1O	6.68 µM
CC(/C=C1\SC(=S)N(NS(=O)(=O)c2ccc(C)cc2)C1=O)=C\c1ccccc1	5.66 µM
O=C1C(Cl)=C(N2CCCCC2)C(=O)C(Cl)=C1c1cnc(N2CCCCC2)s1	< 0.4 µM

Compound	IC50
O=c1cc(/N=C/c2coc3c(ccc4ccccc43)c2=O)[nH]c(=S)[nH]1	4.08 µM
Cc1cc2c(C(C)C)c(O)c(O)c(C=O)c2c(O)c1-c1c(C)cc2c(C(C)C)c(O)c(O)c(C=O)c2c1O	< 0.4 µM
COC(=O)CSc1ncnc2c1sc1nc(-c3ccco3)c3c(c12)CC(C)(C)OC3	3.55 µM
COc1ccc(-c2cnnc(N/N=C/c3ccc(O)cc3)n2)cc1	8.41 µM
S=c1[nH]nc(-c2cc(-c3ccccc3)n[nH]2)n1/N=C/C(Br)=C/c1ccccc1	7.38 µM
COC(=O)c1c(NC(=O)Cc2cccs2)sc2c1CCCC2	8.95 µM
Cc1ccc(OCCCC(=O)Nc2ccccc2C(F)(F)F)cc1	43.9 µM
Cc1ccc(-c2cc(C(=O)NCCCn3ccnc3)c3cc(Br)ccc3n2)o1	> 54 µM
Cc1ccc(C(=O)COC(=O)CNC(=O)c2ccc(N3C(=O)c4ccccc4C3=O)cc2)cc1C	> 54 µM
O=C1NN(c2ccc(Cl)c(Cl)c2)C(=O)/C1=C/c1cccc(OC(=O)c2cccs2)c1	4.13 µM
Cc1nnc(NC(=O)c2sc3nc(-c4cccs4)cc(C(F)(F)F)c3c2N)s1	1.6 µM
Cc1cc(C)c(S(=O)(=O)Nc2cc(SCC(=O)O)c(O)c3ccccc23)cc1C	< 0.4 µM
COc1cc(/C=N\Nc2nc(-c3ccc(C)cc3)c(NC(C)=O)s2)ccc1O	> 54 µM
Cc1nnc(Sc2cc(NCCO)c([N+](=O)[O-])c3nonc23)s1	< 0.4 µM
O=C(NCC1CCCO1)c1ccc(Cn2c(=S)[nH]c3ccccc3c2=O)cc1 (stereo unspecified)	> 54 µM
COc1cccc(C(=O)Nc2ccc3c(c2)C(=O)c2ccccc2C3=O)c1	2.12 µM
Cc1ccc(NC(=O)CN2C(=O)S/C(=C/c3ccc(-c4cc(C(=O)O)ccc4C)o3)C2=O)cc1C	2.85 µM
CN1CCN(c2ccc([N+](=O)[O-])cc2/C=N/NC(=O)c2cccc([N+](=O)[O-])c2)CC1	1.42 µM
CN1CCc2cccc3c2[C@H]1Cc1ccc(O)c(O)c1-3	< 0.4 µM
CCOc1cc(CNc2ccc(N3CCCC3)cc2)cc(Cl)c1OC	> 54 µM
O=C(Nc1cccc(Cl)c1)c1cc(N=Nc2ccc([N+](=O)[O-])cc2Cl)ccc1O	1.56 µM
O=C(O)c1cccc2c1NC(C(=O)O)C1CC(Sc3ccccc3[N+](=O)[O-])C(Cl)C21 (stereo unspecified)	0.881 µM

Compound	IC50
Cc1cc(-c2nc3c4c5c(sc4[nH]c(=O)n3n2)CCC5)c(C)o1	< 0.4 µM
CN(C)c1ccc(/C=N/N(Cc2ccccc2)c2ccccc2)cc1	> 54 µM
CCc1ccc(-n2cccc2/C=C2/C(=N)N3C(=NC2=O)SN=C3S(C)(=O)=O)cc1	4.43 µM
O=C1c2ccccc2C(=O)N1/N=C/c1ccc(O)c(O)c1O	< 0.4 µM
Cc1ccc2[nH]c(O)c(N=Nc3nc4ccccc4s3)c2c1	2.48 µM
CN(C)c1ccc(C(CNC(=O)c2ccc(C#N)cc2)c2c[nH]c3ccccc23)cc1 (stereo unspecified)	> 54 µM
Nc1ccc(O)c2c1C(=O)c1ccccc1C2=O	1.88 µM
COc1ccc(/C=C2\C(=O)N(c3c(Cl)cc(Cl)cc3Cl)N=C2NC(=O)c2cccc([N+](=O)[O-])c2)cc1	2.96 µM
Fc1cccc(NC(=S)NNc2c3ccccc3nc3ccccc23)c1	3.31 µM
O=c1[nH]c(C(Cl)Cl)nc2sc3c(c12)CCN(Cc1ccccc1)C3	> 54 µM
CN1C(=O)/C(=C/c2ccc(-c3ccccc3[N+](=O)[O-])o2)SC1=Nc1ccc(Cl)c(C(=O)O)c1	< 0.4 µM
COc1ccccc1C1NC=C([N+](=O)[O-])C=C1[N+](=O)[O-] (stereo unspecified)	> 54 µM
C/C=C\C=C/C(=O)Nc1cccc(C2=NOC3(C2)C[C@@H](C(N)=O)N(C(=O)c2ccccc2)C3)c1 (stereo partly specified)	50.9 µM
NS(=O)(=O)c1ccc(-c2ccc(/C=C3\SC(=S)N(C4CCS(=O)(=O)C4)C3=O)o2)cc1 (stereo unspecified)	2.55 µM
CCn1c(SCc2nc3sc(C(=O)O)c(C)c3c(=O)[nH]2)nc2ccccc21	3.32 µM
CC(=O)c1ccc2c(c1)C1C=CCC1C(C(=O)O)N2 (stereo unspecified)	< 0.4 µM
C=CCOC(=O)C1=C(C)N=c2s/c(=C3\C(=O)N(CC(=O)O)c4ccccc43)c(=O)n2C1c1ccc(OC)cc1 (stereo unspecified)	3.48 µM
Cc1ccc(-c2nnc3ccc(SC(C)C(=O)O)nn23)cc1 (stereo unspecified)	4.71 µM
Cc1ccc2nc(/C(C#N)=C/c3ccc(-c4cccc([N+](=O)[O-])c4)o3)[nH]c2c1	1.68 µM
COc1ccc(CCNC(=O)COC(=O)Cc2cccc3ccccc23)cc1	> 54 µM
CN1C=C/C(=C\c2cc[n+](C)c3ccccc23)c2ccccc21	< 0.4 µM
O=C(Cc1csc(N2CCOCC2)n1)N/N=C/c1ccc(O)c(O)c1O	< 0.4 µM

Compound	IC50
c1coc(-c2nc3ccccc3nc2-c2ccco2)c1	5.17 µM
CCOC(=O)CSc1nnc2n1C(C)(C)Cc1ccccc1-2	> 54 µM
O=C(N/N=C/c1ccc(-c2ccc(S(=O)(=O)Nc3ncccn3)cc2)o1)c1cc2ccccc2cc1O	1.43 µM
CCOc1ccccc1NC(=O)/C=C/C(N)=O	> 54 µM
CCC(=O)Oc1ccc2c(=O)c(-c3ccc4ccccc4n3)c(CC)oc2c1C	> 54 µM
CC1(c2ccccc2)CC(C)(C)N2C(=O)/C(=C3\SC(=S)NC3=O)c3cccc1c32 (stereo unspecified)	< 0.4 µM
CCOC(=O)c1c(NC(C)=O)sc2c(O)c(Br)cc(Br)c12	8.58 µM
COC(=O)Nc1ccc(S(=O)(=O)NCc2ccccn2)cc1	> 54 µM
FC(F)(F)C1=CC(c2ccccc2)=NCCN1	> 54 µM
Cc1ccc(-n2c(O)c(/C=N/Nc3ccc(S(=O)(=O)N4CCOCC4)cc3[N+](=O)[O-])c3ccccc3c2=O)c(C)c1	> 54 µM
O=C(/C=C/c1ccco1)Nc1ccc2nn(-c3ccccc3)nc2c1	3.24 µM
O=c1nc2s/c(=C\c3ccc(-c4ccccc4[N+](=O)[O-])o3)c(=O)n2nc1-c1ccccc1	< 0.4 µM
Cc1ccc(NC(=O)Cn2c(O)c(N=NC(=O)c3cc4ccccc4cc3O)c3ccccc32)cc1	2.98 µM
CCN(CC)c1ccc(NC(=O)CCNC(=O)c2ccco2)cc1	> 54 µM
COc1ccc(-n2cccc2/C=C2\C(=N)N3N=C(c4ccco4)SC3=NC2=O)cc1	< 0.4 µM
COc1ccc(NC(=S)NNc2ccc(S(=O)(=O)Nc3ccccc3C(=O)O)cc2[N+](=O)[O-])cc1	> 54 µM
CCCCn1c(NCc2ccc(N(C)C)cc2)nc2ccccc21	1.14 µM
Cc1ccc(-c2nc3c(c(=O)[nH]c(=O)n3Cc3ccccc3)n2C)o1	< 0.4 µM
